Data published in PMC8217011, “Natural brominated phenoxyphenols kill persistent and biofilm-incorporated cells of MRSA and other pathogenic bacteria” (Applied Microbiology and Biotechnology, 2020).
Values joined by “and” are separate entries in the source; they are usually repeats but may differ in a detail not shown here. Identical values can stand only once.

What was measured:
[1] = system: gram-negative bacteria; test: MIC determination, summary over gram-negative strains; type: cell-based; details: colistin concentration of 0.1 μM (0.12 μg/mL)
Method: (§1) The minimal inhibitory concentration (MIC) has been determined according to the CSLI guidelines (CLSI [2012]). Briefly, in a sterile polystyrene U-bottom 96-well plate, a 2-fold serial dilution ranging from 100 to 0.78 μM of testing compounds has been prepared in 50 μL MHB. A freshly inoculated S. aureus culture was grown until OD600 nm of approx. 0.6 and diluted to 10^6 CFU/mL in MHB. Finally, 50 μL of the latter cell suspension was added to each well and then incubated statically for 18–24 h at 37 °C. MIC was determined using BacTiterGlo ATP assay (Promega, Madison, WI, USA) and Tecan Infinite F200 Pro (Tecan, Männedorf, Switzerland). Moxifloxacin and DMSO were used as positive and negative control, respectively. Sublethal concentrations of colistin (0.1 μM) were used in some experiments to increase the permeability of the gram-negative cell envelope for compound testing. For E. cloacae, a broth microdilution assay was performed using a serial 2-fold dilution in 96-well flat-bottomed plates (Falcon, BD Bioscience, Heidelberg) of both PPs in broth LB medium (Roth, Karlsruhe) at a concentration range of 50–0.024 μM.

[2] = system: Escherichia coli ATCC 25922; test: MIC determination (microbroth dilution); type: cell-based; details: colistin alone
Method: (§2) Cultures were, if not stated differently, incubated at 37 °C with aeration and shaking (150 rpm) in Mueller-Hinton broth (MHB). Bacteria were freshly incubated at the next morning from an overnight pre-culture for actively growing bacteria to an OD600 nm of approx. 0.6. To ensure persistent growth form, the bacteria were grown overnight until a density at OD600 nm > 5.0 was obtained. For biofilm growth, some colonies from a Mueller-Hinton agar (MHA) plate were picked and resuspended in MHB. Cell density has been adjusted to OD600 nm = 0.8, and cells were sown into a flat-bottom 96-well plate to be incubated statically at 37 °C with aeration. Studies were mainly performed with S. aureus Mu50.
as §1

[3] = system: Acinetobacter baumannii ATCC 747; test: MIC determination (microbroth dilution); type: cell-based; details: colistin alone
Method: as §2, §1

[4] = system: stationary phase-induced persistent cells of MRSA strain Mu50; test: Persister killing kinetics (CFU plating); type: cell-based, Staphylococcus aureus; details: start 10^8 CFU/mL
Method: For persister killing kinetics, cells were grown overnight until a density of OD600 nm > 5.0 was reached and then washed three times with PBS. Next, cell density was adjusted to 10^8 CFU/mL in 5 mL PBS. […] Analysis was performed as described above.

[5] = system: pre-formed MRSA biofilms; test: Biofilm viability by CFU plating; type: cell-based, Staphylococcus aureus; details: 24 h of treatment, 4× minimal biofilm inhibitory concentration, moxifloxacin 20 μM
Method: Additionally, biofilm viability was quantified by CFU plating. Biofilms were pregrown as described above and treated for 24 h with 4× minimal biofilm inhibitory concentrations as calculated from the Resazurin reduction assay. Biofilms were dispersed by pipetting followed by sonification in a water bath. Dilutions were plated on Mueller-Hinton agar plates and incubated overnight at 37 °C.

[6] = system: actively replicating MRSA strain Mu50; test: Killing kinetics, actively replicating cells (CFU plating); type: cell-based, Staphylococcus aureus; details: MHB, start 10^6 CFU/mL; PPs at 4× MIC, moxifloxacin 20 μM; detection limit 10^2 CFU/mL
Method: S. aureus cells were freshly incubated in MHB until an OD600 nm of approx. 0.6 was reached. Next, the cells were diluted to 10^6 CFU/mL in 5 mL MHB. […] At certain time points (0, 0.5, 1, 3, 6, 8, 24 h), 100 μL was removed from the culture, diluted and plated onto MHA plates. After 24-h incubation, colonies were counted and viability (expressed as colony-forming units per mL (CFU/mL)) was calculated considering the dilution factor.

Compound: colistin [reference compound]
- growth of gram-negative bacteria [1]: not inhibited
- MIC [2]: 0.78 μM and 0.90 μg/mL
- MIC [3]: 0.78 μM and 0.90 μg/mL

Compound: CCCCCCCCCCCCCCCCn1cc[n+](Cc2ccccc2)c1C.[I-] [NH125, reference compound]
- time until viability reduced to the detection limit ([4]; PPs at 4× MIC, NH125 10 μM, detection limit 10^2 CFU/mL): ~3 h

Compound: COc1c(N2C[C@@H]3CCCN[C@@H]3C2)c(F)cc2c(=O)c(C(=O)O)cn(C3CC3)c12 [moxifloxacin, reference compound]
- decrease of viability of persistent cells after 24 h ([4]; 3-bromo-PP at 4× MIC, moxifloxacin control, 24 h): did not show any effect
- reduction in viable cell counts in biofilms [5]: virtually no effect
- time until viability reached the detection limit [6]: 3 h
